Like-named read-outs stand apart in the source and are kept apart here. Ends that are not written are not given here.
Assays:
[1] = test system: Pseudomonas aeruginosa (DSM 1117); format: cell-based
Procedure: (§1) Antimicrobial activity was measured by a standard MIC assay, carried out with Gram-positive Staphylococcus aureus (DSM 1104) and Enterococcus faecalis (DSM 2570) and with Gram-negative Escherichia coli (DSM 1103) and Pseudomonas aeruginosa (DSM 1117), as previously reported. Briefly, bacteria were grown in Müller-Hinton medium at 37°C overnight. Microtiter plates (96 wells of 100 μL) were filled with 50 μL of Müller-Hinton medium, and serial 2-fold dilutions of peptides were arranged in quadruple. The two final rows of each plate remained without peptide, so that the penultimate data point served as the positive control (no peptide), and the final one as the negative control (not inoculated). 50 μL of bacterial suspension (OD = 0.2) was added to the wells (except for the final row of each plate) to give a final concentration of 10^6 colony-forming units (CFU)/mL.

[2] = test system: Escherichia coli (DSM 1103); format: cell-based
Procedure: as §1

[3] = test system: Enterococcus faecalis (DSM 2570); format: cell-based
Procedure: as §1

[4] = test system: Staphylococcus aureus (DSM 1104); format: cell-based
Procedure: as §1

[5] = Vesicle leakage assay (ANTS/DPX fluorescence dequenching); format: biochemical; conditions: for percentage of leakage: P/L = 1:12.5, after 10 minutes, 100 μM lipid, 30°C, pH 7.5, relative to Triton X-100 = 100%
Procedure: For the leakage experiments, the buffer in which the vesicles were prepared contained the fluorophor ANTS (12.5 mM), the quencher DPX (45 mM), 50 mM NaCl, and 10 mM HEPES (pH 7.5). Liposomes were prepared by co-dissolving PC/PG 1:1 (mol/mol) mixtures of the lipids with different chain length in CHCl3/MeOH (3:1 v/v), together with 10^−2 mol% Rhod-PE by which the lipid loss during vesicle preparation (extrusion and gel filtration, see below) could be quantified. The peptide-to-lipid ratio (P/L) is given in mol/mol. The lipid mixture was dried under N2(g) and left to dry under vacuum overnight. The obtained thin film was then re-suspended in the buffer which contained the fluorophor and the quencher by vigorous vortexing, followed by 10 freeze-thaw cycles. Large unilamellar vesicles (LUV) were obtained by 21-fold extrusion (Avanti Mini Extruder; Avanti Polar Lipids, Alabaster, AL) of the liposomes through a Nuclepore polycarbonate membrane (pore size 100 nm, Whatman - GE Healthcare Europe, Freiburg, Germany) at a temperature 20°C above the lipid phase transition. Unencapsulated dye was removed by gel filtration using spin columns filled with Sephacryl 100-HR (Sigma-Aldrich, Taufkirchen, Germany), and equilibrated with an elution buffer (150 mM NaCl, 10 mM HEPES, pH 7.5) which balances the internal vesicle osmolarity.
Leakage of entrapped ANTS was monitored by fluorescence dequenching of ANTS[76]. Fluorescence measurements were performed in a thermostatted cuvette with constant stirring at 30°C in the same buffer as used for gel filtration on a FluoroMax2 spectrofluorimeter (HORIBA Jobin Yvon, Unterhaching, Germany) by setting the ANTS emission to 510 nm (5 nm slit) and its excitation to 355 nm (5 nm slit). The vesicles (100 μM lipid final concentration) of the desired composition were added to the cuvette containing the peptide at the P/L ratio to be tested (from 1 mM stock solutions in water). The level of 0% leakage corresponded to the fluorescence of the vesicles immediately after their addition, while 100% leakage was the fluorescence value obtained after addition of a 0.25 vol-% Triton X-100 after 10 min.

[6] = Circular dichroism, secondary structure deconvolution (CONTIN-LL); format: physicochemical; conditions: CD, P/L 1:50, 30 μM peptide, 30°C; for Helicity: DMPC/DMPG (3:1) small unilamellar vesicles, 10 mM phosphate buffer pH 7, minimum helical content; for Percentage of secondary structure element: α-helix: DMPC/DMPG (3:1) vesicles
Procedure: CD samples were prepared by co-solubilizing DMPC and DMPG (3:1 mol/mol) in chloroform/methanol 3:1 (v/v). After drying, the lipid film was dispersed in phosphate buffer (10 mM, pH 7) and homogenized by vortexing. Small unilamellar vesicles (SUVs) for CD samples were generated by sonication in a high-power ultrasonic bath with a beaker-shaped sonotrode (UTR 200, Hielscher, Germany). CD spectra were recorded on a J-815 spectropolarimeter (JASCO, Groß-Umstadt, Germany) between 260 and 185 nm at 0.1-nm intervals, using 1-mm quartz glass cells (Suprasil; Hellma, Müllheim, Germany) at 20°C, as reported previously. The peptides were measured at 20°C in 10 mM sodium phosphate buffer (pH 7.0) and at 30°C in lipid vesicles composed of DMPC/DMPG (3:1). Typical peptide concentrations of the final samples in phosphate buffer was 36–72 μM, and for the vesicle samples 30 μM with a peptide-to-lipid molar ratio (P/L) of 1:50. An averaged baseline of the pure solvent or lipid matrix, respectively, was subtracted. Finally, the spectra were converted to mean residue ellipticities (MRE) by using the weighed-in peptide amount and the volume of the sample for concentration determination. […] Although this ambiguity in peptide concentration leads most probably to an underestimation of the magnitude of the MRE values we attempted a quantitative deconvolution of CD data to estimate the relative contents of different secondary structure elements. If part of the weighted material was not peptide, this leads to an underestimating of the MRE, which also leads to an underestimation of the helical content. The values obtained are thus the minimum helical content of each peptide.
Secondary structure estimation from CD spectra was performed using the CONTIN-LL program, which is based on the ridge regression algorithm. The algorithm is provided by the DICHROWEB on-line server. The quality of the fit between experimental and back-calculated spectrum corresponding to the estimated secondary structure fractions was assessed from the normalized root mean square deviation (NRMSD), with a value <0.1 considered as a good fit[74].

[7] = DErPC/DErPG 1:1 vesicles (34.4/34.4 Å)
[8] = DErPC/POPG 1:1 vesicles (34.4/27.8 Å)
[9] = DMoPC/DOPG 1:1 vesicles (hydrophobic thickness 19.2/27.5 Å)
[10] = POPC/DErPG 1:1 vesicles (27.1/34.4 Å)
[11] = POPC/POPG 1:1 vesicles (27.1/27.8 Å)

Substance	MIC ([1]; DSM 1117, 20 h) [µM]	MIC ([2]; DSM 1103, 20 h) [µM]	MIC ([3]; DSM 2570, 20 h) [µM]	MIC ([4]; DSM 1104, 20 h) [µM]	other results
GMASKAGAIAGKIAKVALKAL-NH2 [PGLa, reference compound]					MIC ([1]; P. aeruginosa, same assay as Table 2, given in µM): 119 µM; MIC ([2]; E. coli, same assay as Table 2, given in µM): 15 µM; MIC ([3]; E. faecalis, same assay as Table 2, given in µM): >477 µM; MIC ([4]; S. aureus, same assay as Table 2, given in µM): 30 µM
KIAGKIAKIAGKIAKIAGK-NH2 [KIA19]	120	15	>481	>120	
KIAGKIAKIAGKIAKIAGKIAKIAGKIA-NH2 [KIA28]	5.2	2.6	5.2	2.6	
KIAGKIAKIAGKIAKIAGKIAKIAGK-NH2 [KIA26]	5.6	1.4	22	2.8	
KIAGKIAKIAGKIAKIAGKIAK-NH2 [KIA22]	13	1.6	414	6.5	percentage of leakage [5, 7]: 6%; percentage of leakage [5, 8]: 85%; percentage of leakage [5, 9]: 100%; percentage of leakage [5, 10]: 26%; percentage of leakage [5, 11]: 100%; kinetics (rate) of leakage ([5]; POPC/POPG vesicles, P/L = 1:50, time course over 600 s): slower kinetics; Helicity [6]: 68%; Percentage of secondary structure element: α-helix [6]: 67.7%; antimicrobial activity (in words) ([1]; P. aeruginosa DSM 1117, MIC assay): somewhat active; antimicrobial activity (in words) ([3]; E. faecalis DSM 2570, MIC assay): hardly any activity
KIAGKIAKIAGKIAKIAGKIAKIA-NH2 [KIA24]	6.0	1.5	24	1.5	
KIAGKIAKIAGKIA-NH2 [KIA14]	>164	>164	>657	>164	
KIAGKIAKIAGKIAKIAGKIA-NH2 [KIA21]	28	1.7	443	3.5	
KIAGKIAKIAGKIAK-NH2 [KIA15]	>149	>149	>595	>149	percentage of leakage [5, 7]: 0%; percentage of leakage [5, 8]: 3%; percentage of leakage [5, 9]: 3%; percentage of leakage [5, 10]: 2%; percentage of leakage [5, 11]: 2%; leakage ([5]; POPC/POPG vesicles, P/L = 1:50, time course over 600 s, Triton X-100 = 100%): < 2%; Helicity [6]: 69%; Percentage of secondary structure element: α-helix [6]: 68.7%; antimicrobial activity (in words) ([2]; E. coli DSM 1103, MIC assay): completely inactive
KIAGKIAKIAGKIAKIA-NH2 [KIA17]	134	17	>537	134	
